Test results taken from article PMC12666248, “Synthesis of an N‐Galactosyl Norbornane Aziridine and its Potent Mixed Inhibition of Aspergillus oryzae β‐Galactosidase” (Chembiochem, 2025).

Biological target: T1, β-galactosidase (A. oryzae) (Aspergillus oryzae, UniProt Q2UCU3)
T1 construct: gene lacA
T1 sequence (Q2UCU3 19-1005): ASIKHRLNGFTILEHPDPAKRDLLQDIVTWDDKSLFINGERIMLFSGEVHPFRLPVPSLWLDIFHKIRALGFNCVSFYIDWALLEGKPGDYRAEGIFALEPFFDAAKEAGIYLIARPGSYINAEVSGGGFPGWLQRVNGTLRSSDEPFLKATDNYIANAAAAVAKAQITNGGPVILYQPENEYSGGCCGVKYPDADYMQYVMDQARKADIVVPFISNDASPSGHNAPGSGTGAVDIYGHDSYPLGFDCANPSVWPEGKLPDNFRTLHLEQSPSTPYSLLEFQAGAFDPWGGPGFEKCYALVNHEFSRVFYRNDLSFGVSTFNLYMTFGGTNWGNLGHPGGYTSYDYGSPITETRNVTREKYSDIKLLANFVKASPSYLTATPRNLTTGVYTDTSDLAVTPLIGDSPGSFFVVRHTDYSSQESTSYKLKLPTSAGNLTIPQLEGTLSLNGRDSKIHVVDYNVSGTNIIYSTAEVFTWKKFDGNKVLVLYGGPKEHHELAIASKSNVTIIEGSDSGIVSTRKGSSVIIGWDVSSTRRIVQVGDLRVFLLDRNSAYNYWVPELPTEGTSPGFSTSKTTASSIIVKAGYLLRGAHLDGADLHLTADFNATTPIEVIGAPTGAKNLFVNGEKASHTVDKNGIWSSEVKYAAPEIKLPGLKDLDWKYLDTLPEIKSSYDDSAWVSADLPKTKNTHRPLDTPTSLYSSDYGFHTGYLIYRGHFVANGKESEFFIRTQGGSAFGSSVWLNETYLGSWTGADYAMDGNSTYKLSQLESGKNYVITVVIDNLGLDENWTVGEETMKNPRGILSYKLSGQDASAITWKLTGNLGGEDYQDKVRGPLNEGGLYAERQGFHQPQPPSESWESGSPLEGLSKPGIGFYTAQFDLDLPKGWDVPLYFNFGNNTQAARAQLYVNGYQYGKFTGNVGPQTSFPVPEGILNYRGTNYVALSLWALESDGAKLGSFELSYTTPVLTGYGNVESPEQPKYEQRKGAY
Test: Enzyme kinetics with 2-nitrophenyl β-D-galactopyranoside, absorbance at […] nm, Lineweaver–Burk analysis, pH […] °C
Type: biochemical

Compound: OC[C@H]1O[C@@H](N2[C@@H]3[C@H]4CC[C@H](C4)[C@@H]32)[C@H](O)[C@@H](O)[C@H]1O (stereo partly drawn) [compound 6, N‐(β‐D‐galactopyranosyl)‐exo‐3‐azatricyclo[3.2.1.0^2,4]octane]
- Ki: 3.65 µM
